From patent publication US12522827B2 (priority 2021, dated 2026)
l = locked nucleic acid (LNA); d = 2'-deoxy (DNA)

Tests used:
PR8 (H1N1) virus = format: cell-based, Influenza A/PR/8/34 (PR8) H1N1 virus
[1] = test system: A/Hong Kong/8/68 (HK68) (H3N2) virus; format: cell-based, Influenza A/Hong Kong/8/68 (HK68) H3N2 virus
wild-type PR8 virus = test system: wild-type PR8 virus; parameters: species or system Balb/C female mice; conditions: mouse, in vivo

AGAcagcgaccaaAAG (AGACAGCGACCAAAAG; antisense; sugars from the 5' end l3 d10 l3, backbone and methylation of C not given here) [LNA8a]
drop in viral production (antiviral activity) (PR8 (H1N1) virus): up to 3 logs
drop in viral production (antiviral activity) [1]: up to 3 logs

AccAaaAGaaT (ACCAAAAGAAT; antisense; sugars from the 5' end lddlddllddl, backbone and methylation of C not given here) [LNA1]
effect on viral titer / viral production (PR8 (H1N1) virus): little to no effect
effect on viral titer / viral production [1]: little to no effect

CATACTTA [LNA5]
effect on viral titer / viral production (PR8 (H1N1) virus): failed to inhibit viral production
effect on viral titer / viral production [1]: failed to inhibit viral production

CCAAAAGA [LNA4]
effect on viral titer / viral production (PR8 (H1N1) virus): little to no effect
effect on viral titer / viral production [1]: little to no effect

CagaCaCGaCCaaAA (CAGACACGACCAAAA; antisense; sugars from the 5' end ldddldlldllddll, backbone and methylation of C not given here) [LNA6]
titer deficits (PR8 (H1N1) virus): greater than 2 log10

TACTtactgacaGCC [LNA9]
clinical signs of disease (wild-type PR8 virus): little-to-no clinical signs of disease
protection from fatal influenza disease (survival) (wild-type PR8 virus): completely protected
recovery of weight (wild-type PR8 virus): fully recovered to pre-infection weight
weight loss (wild-type PR8 virus): minimal weight loss
antiviral response, cells pre-treated (PR8 (H1N1) virus): greater than 4 logs
drop in viral production (antiviral activity) (PR8 (H1N1) virus): ~5 logs
suppression of viral titer, post-infection treatment (PR8 (H1N1) virus): greater than 3 logs
viral inhibition at the lowest dilution (PR8 (H1N1) virus): greater than 2 logs
drop in viral production (antiviral activity) [1]: ~4 logs

TagCAtActtA (TAGCATACTTA; antisense; sugars from the 5' end lddlldldddl, backbone and methylation of C not given here) [LNA3]
effect on viral titer / viral production (PR8 (H1N1) virus): failed to inhibit viral production
effect on viral titer / viral production [1]: failed to inhibit viral production
